Source: PubChem BioAssay (NCI)
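Briefly, cells in 96-well plates were exposed to five compound concentrations for 48 h, and endpoints were estimated by linear interpolation. GI50: concentration for 50% inhibition of growth. TGI: total growth inhibition.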

Key:
Assay in all cases: DTP human tumour cell line panel, 48 h
786-0 renal = tested on: 786-0 renal
A549 NSCLC = tested on: A549 NSCLC
ACHN renal = tested on: ACHN renal
BT-549 breast = tested on: BT-549 breast
CAKI-1 renal = tested on: CAKI-1 renal
CCRF-CEM leukemia = tested on: CCRF-CEM leukemia
COLO 205 colon = tested on: COLO 205 colon
DU-145 prostate = tested on: DU-145 prostate
EKVX NSCLC = tested on: EKVX NSCLC
HCC-2998 colon = tested on: HCC-2998 colon
HCT-116 colon = tested on: HCT-116 colon
HCT-15 colon = tested on: HCT-15 colon
HOP-62 NSCLC = tested on: HOP-62 NSCLC
HT29 colon = tested on: HT29 colon
IGROV1 ovarian = tested on: IGROV1 ovarian
K-562 leukemia = tested on: K-562 leukemia
M14 melanoma = tested on: M14 melanoma
MALME-3M melanoma = tested on: MALME-3M melanoma
MDA-MB-231 breast = tested on: MDA-MB-231 breast
MDA-MB-435 = tested on: MDA-MB-435
MOLT-4 leukemia = tested on: MOLT-4 leukemia
NCI-H460 lung = tested on: NCI-H460 lung
NCI-H522 lung = tested on: NCI-H522 lung
NCI/ADR-RES ovarian = tested on: NCI/ADR-RES ovarian
OVCAR-3 ovarian = tested on: OVCAR-3 ovarian
OVCAR-5 ovarian = tested on: OVCAR-5 ovarian
PC-3 prostate = tested on: PC-3 prostate
RPMI-8226 leukemia = tested on: RPMI-8226 leukemia
RXF 393 renal = tested on: RXF 393 renal
SF-268 CNS = tested on: SF-268 CNS
SF-295 CNS = tested on: SF-295 CNS
SF-539 CNS = tested on: SF-539 CNS
SK-MEL-2 melanoma = tested on: SK-MEL-2 melanoma
SK-OV-3 ovarian = tested on: SK-OV-3 ovarian
SN12C renal = tested on: SN12C renal
SNB-19 CNS = tested on: SNB-19 CNS
SNB-75 CNS = tested on: SNB-75 CNS
SR leukemia = tested on: SR leukemia
SW-620 colon = tested on: SW-620 colon
T-47D breast = tested on: T-47D breast
TK-10 renal = tested on: TK-10 renal
U251 CNS = tested on: U251 CNS
UACC-257 melanoma = tested on: UACC-257 melanoma
UACC-62 melanoma = tested on: UACC-62 melanoma
UO-31 renal = tested on: UO-31 renal

Cc1nn2c(/C=N/N=C(N)N)c(-c3ccc(Cl)c([N+](=O)[O-])c3)nc2s1
GI50 (786-0 renal): 249 nM | TGI (786-0 renal): 442 nM | GI50 (A549 NSCLC): 4960 nM | TGI (A549 NSCLC): 17500 nM | GI50 (ACHN renal): 966 nM | TGI (ACHN renal): 2580 nM | GI50 (BT-549 breast): 21600 nM | TGI (BT-549 breast): 48300 nM | GI50 (CAKI-1 renal): 1470 nM | TGI (CAKI-1 renal): 2850 nM | GI50 (CCRF-CEM leukemia): 368 nM | TGI (CCRF-CEM leukemia): 751 nM | GI50 (COLO 205 colon): 457 nM | TGI (COLO 205 colon): 61700 nM | GI50 (DU-145 prostate): 2320 nM | TGI (DU-145 prostate): 4980 nM | GI50 (EKVX NSCLC): 25300 nM | TGI (EKVX NSCLC): 69600 nM | GI50 (HCC-2998 colon): 1420 nM | TGI (HCC-2998 colon): 2910 nM | GI50 (HCT-116 colon): 192 nM | TGI (HCT-116 colon): 374 nM | GI50 (HCT-15 colon): 1430 nM | TGI (HCT-15 colon): 3720 nM | GI50 (HOP-62 NSCLC): 262 nM | TGI (HOP-62 NSCLC): 529 nM | GI50 (HT29 colon): 236 nM | GI50 (IGROV1 ovarian): 6200 nM | TGI (IGROV1 ovarian): 22100 nM | GI50 (K-562 leukemia): 2980 nM | TGI (K-562 leukemia): 9630 nM | GI50 (M14 melanoma): 1720 nM | TGI (M14 melanoma): 3300 nM | GI50 (MALME-3M melanoma): 2440 nM | TGI (MALME-3M melanoma): 4140 nM | GI50 (MDA-MB-231 breast): 2030 nM | TGI (MDA-MB-231 breast): 3660 nM | GI50 (MDA-MB-435): 204 nM | TGI (MDA-MB-435): 363 nM | GI50 (MOLT-4 leukemia): 2880 nM | TGI (MOLT-4 leukemia): 5610 nM | GI50 (NCI-H460 lung): 1180 nM | GI50 (NCI-H522 lung): 7040 nM | TGI (NCI-H522 lung): 46700 nM | GI50 (NCI/ADR-RES ovarian): 3610 nM | TGI (NCI/ADR-RES ovarian): 15000 nM | GI50 (OVCAR-3 ovarian): 488 nM | TGI (OVCAR-3 ovarian): 1520 nM | GI50 (OVCAR-5 ovarian): 1420 nM | TGI (OVCAR-5 ovarian): 3150 nM | GI50 (PC-3 prostate): 1140 nM | TGI (PC-3 prostate): 2830 nM | GI50 (RPMI-8226 leukemia): 791 nM | TGI (RPMI-8226 leukemia): 1760 nM | GI50 (RXF 393 renal): 3400 nM | GI50 (SF-268 CNS): 1220 nM | GI50 (SF-295 CNS): 615 nM | TGI (SF-295 CNS): 1940 nM | GI50 (SF-539 CNS): 2070 nM | TGI (SF-539 CNS): 3630 nM | GI50 (SK-MEL-2 melanoma): 2530 nM | TGI (SK-MEL-2 melanoma): 6460 nM | GI50 (SK-OV-3 ovarian): 2850 nM | TGI (SK-OV-3 ovarian): 6750 nM | GI50 (SN12C renal): 763 nM | TGI (SN12C renal): 1580 nM | GI50 (SNB-19 CNS): 543 nM | TGI (SNB-19 CNS): > 100000 nM | GI50 (SNB-75 CNS): 1360 nM | TGI (SNB-75 CNS): 2940 nM | GI50 (SR leukemia): 2530 nM | TGI (SR leukemia): 4900 nM | GI50 (SW-620 colon): 444 nM | TGI (SW-620 colon): 1720 nM | GI50 (T-47D breast): 481 nM | GI50 (TK-10 renal): 2060 nM | TGI (TK-10 renal): 3560 nM | GI50 (U251 CNS): 285 nM | TGI (U251 CNS): 597 nM | GI50 (UACC-257 melanoma): 6140 nM | TGI (UACC-257 melanoma): 11700 nM | GI50 (UACC-62 melanoma): 2060 nM | TGI (UACC-62 melanoma): 3580 nM | GI50 (UO-31 renal): 20900 nM | TGI (UO-31 renal): 41100 nM
